Reference: ChEMBL document CHEMBL1201862, “PubChem BioAssay data set” (2004)
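Tested at 5 concentrations; 48 h exposure; 96-well plates; endpoints linearly interpolated, else capped at highest concentration. GI50 is the concentration that inhibits growth by half.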 Active and inactive are the calls of the source. No stated cut-off is given here; in the data, active = GI50 up to about 1.1 µM and inactive = higher.

Legend:
Assay in all cases: NCI anticancer screen, dose series, 48 h
A549 = system: A549
UACC-257 = system: UACC-257
HOP-92 = system: HOP-92
SK-MEL-5 = system: SK-MEL-5
KM12 = system: KM12
BT-549 = system: BT-549
LOX IMVI = system: LOX IMVI
HCC 2998 = system: HCC 2998
TK-10 = system: TK-10
OVCAR-4 = system: OVCAR-4
OVCAR-5 = system: OVCAR-5
COLO 205 = system: COLO 205
NCI/ADR-RES = system: NCI/ADR-RES
T47D = system: T47D
MCF7 = system: MCF7
M14 = system: M14
OVCAR-8 = system: OVCAR-8
SNB-19 = system: SNB-19
NCI-H23 = system: NCI-H23

Measured: GI50

CC(=O)O[C@H]1CC[C@@]2(C)C(=CC[C@@H]3[C@@H]2CC[C@]2(C)c4c(C)nn(-c5ccccc5)c4C[C@@H]32)C1
inactive: A549 35.9 µM | UACC-257 29.9 µM | HOP-92 22.2 µM | SK-MEL-5 37.2 µM | KM12 23 µM | BT-549 9.95 µM | LOX IMVI 12.3 µM | HCC 2998 16.4 µM | TK-10 22.8 µM | OVCAR-4 72.6 µM | OVCAR-5 22.2 µM | COLO 205 15.5 µM | NCI/ADR-RES 34.9 µM | T47D 33 µM | MCF7 32.8 µM | M14 53.8 µM | OVCAR-8 40.7 µM | SNB-19 31 µM | NCI-H23 13.2 µM

O=C1C[C@@H](c2ccccc2)NCCCCN(O)CCCN1
inactive: A549 > 100 µM | UACC-257 > 100 µM | HOP-92 > 100 µM | SK-MEL-5 > 100 µM | KM12 > 100 µM | BT-549 > 100 µM | LOX IMVI > 100 µM | HCC 2998 > 100 µM | TK-10 > 100 µM | OVCAR-4 88.5 µM | OVCAR-5 > 100 µM | COLO 205 > 100 µM | NCI/ADR-RES > 100 µM | T47D > 100 µM | MCF7 > 100 µM | M14 > 100 µM | OVCAR-8 > 100 µM | SNB-19 28.4 µM | NCI-H23 > 100 µM

O=c1[nH]c(=O)n(COCc2ccccc2)c2ccsc12
inactive: A549 > 100 µM | UACC-257 > 100 µM | HOP-92 15.8 µM | SK-MEL-5 > 100 µM | KM12 > 100 µM | BT-549 > 100 µM | LOX IMVI > 100 µM | HCC 2998 > 100 µM | TK-10 > 100 µM | OVCAR-4 > 100 µM | OVCAR-5 > 100 µM | COLO 205 > 100 µM | NCI/ADR-RES > 100 µM | T47D > 100 µM | MCF7 > 100 µM | M14 > 100 µM | OVCAR-8 > 100 µM | SNB-19 73.8 µM

COC(=O)C(Cc1ccccc1)NC(=O)C(CCCNC(=N)N)NC(=O)OCc1ccccc1 (stereo not given)
inactive: A549 > 100 µM | HOP-92 > 100 µM | SK-MEL-5 > 100 µM | KM12 > 100 µM | BT-549 > 100 µM | LOX IMVI > 100 µM | HCC 2998 > 100 µM | TK-10 > 100 µM | OVCAR-4 > 100 µM | OVCAR-5 > 100 µM | COLO 205 > 100 µM | NCI/ADR-RES > 100 µM | T47D > 100 µM | MCF7 > 100 µM | M14 > 100 µM | OVCAR-8 > 100 µM | SNB-19 > 100 µM | NCI-H23 > 100 µM

Cc1cc(=O)n2nc(CSc3nnc(N)s3)sc2n1
inactive: A549 > 100 µM | UACC-257 > 100 µM | HOP-92 > 100 µM | SK-MEL-5 > 100 µM | KM12 > 100 µM | BT-549 > 100 µM | LOX IMVI > 100 µM | HCC 2998 > 100 µM | TK-10 > 100 µM | OVCAR-4 > 100 µM | OVCAR-5 > 100 µM | COLO 205 > 100 µM | NCI/ADR-RES > 100 µM | T47D > 100 µM | MCF7 > 100 µM | M14 > 100 µM | OVCAR-8 > 100 µM | SNB-19 > 100 µM | NCI-H23 > 100 µM

Cc1cn([C@H]2C[C@@H](N3C(=O)c4ccccc4C3=O)[C@@H](CO[Si](C)(C)C(C)(C)C)O2)c(=O)[nH]c1=O
inactive: A549 85.5 µM | UACC-257 > 100 µM | HOP-92 48.6 µM | SK-MEL-5 > 100 µM | KM12 91.6 µM | BT-549 > 100 µM | LOX IMVI > 100 µM | HCC 2998 > 100 µM | TK-10 > 100 µM | OVCAR-4 > 100 µM | OVCAR-5 > 100 µM | COLO 205 > 100 µM | NCI/ADR-RES 43.3 µM | T47D > 100 µM | MCF7 46 µM | M14 > 100 µM | OVCAR-8 32.5 µM | SNB-19 29.3 µM | NCI-H23 31.6 µM

O[C@@H]1[C@H](OC2c3ccccc3-c3ccccc32)[C@H](OCc2ccccc2)[C@@H]2OC[C@H]1O2
inactive: A549 34.6 µM | UACC-257 > 100 µM | HOP-92 > 100 µM | SK-MEL-5 > 100 µM | KM12 > 100 µM | BT-549 > 100 µM | LOX IMVI > 100 µM | HCC 2998 75.7 µM | TK-10 > 100 µM | OVCAR-4 91 µM | OVCAR-5 > 100 µM | COLO 205 > 100 µM | NCI/ADR-RES > 100 µM | T47D > 100 µM | MCF7 > 100 µM | M14 > 100 µM | OVCAR-8 39.6 µM | SNB-19 58.2 µM | NCI-H23 > 100 µM

COC(=O)CN(CC1O[C@@H]2OC(C)(C)O[C@@H]2C1NC(C)=O)C(=O)OCc1ccccc1 (stereo not given in full)
inactive: A549 > 100 µM | UACC-257 > 100 µM | HOP-92 > 100 µM | SK-MEL-5 > 100 µM | KM12 > 100 µM | BT-549 59.8 µM | LOX IMVI > 100 µM | HCC 2998 > 100 µM | TK-10 > 100 µM | OVCAR-4 > 100 µM | OVCAR-5 > 100 µM | COLO 205 > 100 µM | NCI/ADR-RES > 100 µM | T47D > 100 µM | MCF7 > 100 µM | M14 > 100 µM | OVCAR-8 > 100 µM | SNB-19 > 100 µM

CC[C@@]1(CCC(=O)NCCc2c[nH]c3ccccc23)CCC(=O)N2CCc3c([nH]c4ccccc34)[C@H]21
inactive: A549 8.73 µM | UACC-257 14 µM | HOP-92 79.3 µM | SK-MEL-5 24.2 µM | KM12 4.19 µM | BT-549 4.31 µM | LOX IMVI 27.4 µM | HCC 2998 14.2 µM | TK-10 16.7 µM | OVCAR-4 12.9 µM | OVCAR-5 22.8 µM | COLO 205 24.2 µM | NCI/ADR-RES 4.57 µM | T47D 28.7 µM | MCF7 4.44 µM | M14 12.6 µM | SNB-19 9.71 µM | NCI-H23 10.3 µM

O=C(/C=C/c1ccc(O)c(O)c1)OCCc1ccc2ccccc2c1
inactive: A549 9.35 µM | UACC-257 11 µM | HOP-92 6.35 µM | SK-MEL-5 3.15 µM | KM12 3.64 µM | BT-549 2.91 µM | LOX IMVI 6.98 µM | HCC 2998 17 µM | TK-10 7.11 µM | OVCAR-5 16.1 µM | COLO 205 4.59 µM | NCI/ADR-RES 4.08 µM | T47D 4.67 µM | MCF7 2.74 µM | M14 4.95 µM | OVCAR-8 10.4 µM | SNB-19 12.8 µM | NCI-H23 3.42 µM
